In patent US20160354427A1, “METHODS FOR INDUCING EPITHELIAL CANCER CELL SENESCENCE” (Institute for Cancer Research d/b/a The Research Institute …, priority 2011, published 2016):

Assays:
Wnt5a mRNA in PEO1 cells = experiment: Wnt5a mRNA expression by qRT-PCR after Aza-C treatment; assay type: cell-based, human; details: 5 μmol/L Aza-C for 4 days, vs control
From the text: (§1) FIGS. 2A-2C show promoter DNA CpG island hypermethylation contributes to Wnt5a downregulation in human EOC cells. […] Locations of exon 1 (open rectangle), CpG sites (vertical lines) and coding exons (filled rectangle), and the transcription start site (curved arrow) are indicated. Flat arrows indicate the positions of primers used for PCR amplification, and the size of PCR product is also indicated. […] Mean of 3 independent experiments with SD.
(§2) RT-PCR, qRT-PCR and immunoblotting. RNA from cultured primary HOSE or human EOC cells was isolated using Trizol (Invitrogen) according to manufacture's instruction. For qRT-PCR, Trizol®—(Molecular Research Center, Inc., Cincinnati, Ohio) isolated RNA was further purified using a RNeasy® mini kit (Qiagen GmbH, Germany). The Wnt5a primers used for qRT-PCR were purchased from Applied Biosystems. Housekeeping β-2-microglobulin or β-actin mRNA expression was used to normalize the Wnt5a mRNA expression. Soluble β-catenin was extracted using a buffer that consisting of 10 mM pH 7.5 Tris-HCl, 0.05% NP-40, 10 mM NaCl, 3 mM MgCl2, 1 mM EDTA and proteinase inhibitors (Roche). The following antibodies were used for immunoblotting: goat anti-Wnt5a (R&D systems), mouse anti-GAPDH (Millipore/Chemicon), mouse anti-β-catenin (BD Bioscience), anti-p53, mouse anti-Rb and mouse anti-β-actin (Sigma Chemical Co.), and rabbit anti-pRBpS780 (Cell Signaling).

[1] = system: Wnt5a protein in PEO1 cells; experiment: Wnt5a protein expression by immunoblotting after Aza-C treatment; assay type: cell-based, human; details: 5 μmol/L Aza-C for 4 days, vs control
From the text: as §1, §2

Nc1ncn([C@@H]2O[C@H](CO)[C@@H](O)[C@H]2O)c(=O)n1 [Aza-C, 5-Aza-cytadine]
levels of Wnt5a mRNA (Wnt5a mRNA in PEO1 cells): significant increase | levels of Wnt5a protein [1]: significant increase
